Entries after “also recorded” stand apart in the source; their conditions may differ.
System: cord blood CD133 positive cell-derived EPC
Test: EPC colony assay (methylcellulose medium containing physiologically active substances)
Assay type: cell-based
Conditions: 1 μM TGF-β inhibitor in serum-free culture medium (compared with 0, 0.1, 10 μM); cultivation for 2 weeks
Procedure: Using the serum-free culture media of the present invention containing various concentrations of TGF-β inhibitor as prepared in Example 1, cord blood CD133 positive cell-derived EPC was expanded in vitro and differentiated. The degree of expansion was evaluated by counting the number of colonies, and the degree of differentiation was evaluated by separately counting the number of colonies of blood lineage cell and that of EPC. For EPC colony, moreover, large cell colonies and small cell colonies were separately counted, as well as the total number of EPC colonies was counted.
The cord blood-derived mononuclear cells were collected and cultivated in a serum-free culture medium in the same manner as in Example 1. […]
The number of colonies confirmed to be the EPC colonies was counted. The total number of colonies, the number of small cell colonies and the number of large cell colonies were separately counted.
For the blood lineage colony, the number of colonies of four kinds of colonies: erythroid burst-forming unit colony (BFU-E), granulocyte-macrophage lineage colony-forming unit colony (CFU-GM), macrophage colony-forming unit colony (CFU-M) and mixed colony (CFU-GEM) was added, and the appearance frequency thereof was determined over time. […]

`NC(=O)c1ccc(-c2nc(-c3ccc4c(c3)OCO4)c(-c3ccccn3)[nH]2)cc1` [TGF-β inhibitor, 4-(5-benzo[1.3]dioxol-5-yl-4-pyridin-2-yl-1H-imidazol-2-yl)-benzamide] was tested, and the “number of EPC colonies per Dish and total number of EPC colonies” value was “at maximum; also recorded: largest number of EPC colonies”.

Reference: patent US8492148B2, “Method for amplification of endothelial progenitor cell in vitro” (Foundation for Biomedical Research & Innovation, priority 2005, dated 2013)
